Assay results taken from patent US8710043B2, “TRPM8 antagonists and their use in treatments” (Amgen Inc., priority 2011, dated 2014).
pIC50: −log10 of the molar value.

What follows are molecules tested against T1, human TRPM8 (Homo sapiens, UniProt Q7Z2W7) (assay: Luminescence readout assay for measuring intracellular calcium, icilin activation). Details: CHO cells expressing human TRPM8, aequorin luminescence, 1 μM icilin activation; read-out: hTRPM8 IC50.
T1 construct: expressed in transfected cells; host or cells: Chinese hamster ovary (CHO) cells, T-REx tetracycline-inducible system, co-transfected with aequorin
Type: cell-based
Summary of the method: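 The read-out was luminescence reporting intracellular calcium, recorded by a CCD-based luminometer. Compounds were preincubated for 2.5 min before agonist challenge with 1 μM icilin. Human TRPM8 was expressed in a stable T-REx CHO line, induced with 0.5 μg/mL tetracycline the day before.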

T1 sequence (Q7Z2W7 whole entry): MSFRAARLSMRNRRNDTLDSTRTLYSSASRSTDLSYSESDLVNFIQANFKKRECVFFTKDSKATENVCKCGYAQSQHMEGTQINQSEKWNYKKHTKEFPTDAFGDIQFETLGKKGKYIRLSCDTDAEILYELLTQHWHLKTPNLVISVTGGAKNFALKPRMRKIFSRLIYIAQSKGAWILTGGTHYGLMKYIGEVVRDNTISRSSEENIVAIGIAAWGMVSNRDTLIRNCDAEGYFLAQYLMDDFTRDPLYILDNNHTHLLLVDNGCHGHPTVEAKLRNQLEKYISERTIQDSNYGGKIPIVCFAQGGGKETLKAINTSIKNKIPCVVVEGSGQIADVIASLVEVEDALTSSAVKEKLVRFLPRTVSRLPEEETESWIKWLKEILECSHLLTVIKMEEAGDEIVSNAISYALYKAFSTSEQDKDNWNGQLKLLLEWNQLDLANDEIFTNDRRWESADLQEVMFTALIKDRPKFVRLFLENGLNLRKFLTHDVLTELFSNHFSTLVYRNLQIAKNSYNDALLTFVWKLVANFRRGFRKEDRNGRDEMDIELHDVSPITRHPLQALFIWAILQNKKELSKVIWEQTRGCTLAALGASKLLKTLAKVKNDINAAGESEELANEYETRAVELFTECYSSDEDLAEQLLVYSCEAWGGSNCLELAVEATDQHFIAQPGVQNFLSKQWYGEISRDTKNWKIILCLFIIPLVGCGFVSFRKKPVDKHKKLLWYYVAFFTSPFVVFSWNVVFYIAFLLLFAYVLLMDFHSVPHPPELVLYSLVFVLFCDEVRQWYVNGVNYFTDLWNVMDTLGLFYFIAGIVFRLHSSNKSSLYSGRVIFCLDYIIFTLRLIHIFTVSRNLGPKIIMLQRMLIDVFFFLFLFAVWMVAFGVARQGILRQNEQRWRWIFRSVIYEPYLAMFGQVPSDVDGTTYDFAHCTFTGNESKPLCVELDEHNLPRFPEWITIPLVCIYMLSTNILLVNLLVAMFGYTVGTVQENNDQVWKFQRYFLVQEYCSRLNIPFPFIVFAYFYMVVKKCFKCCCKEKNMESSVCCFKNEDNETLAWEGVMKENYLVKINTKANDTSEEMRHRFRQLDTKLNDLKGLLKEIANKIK

| pIC50 | SMILES |
| --- | --- |
| 7.67 | N#Cc1ccc(C(=O)N[C@@H](c2ccc(C(F)(F)F)cc2)c2ncccc2F)cc1 [Example 167, (S)-4-cyano-N-((3-fluoropyridin-2-yl)(4-(trifluoromethyl)phenyl)methyl)benzamide] |
| 7.42 | N#Cc1cccc(C(=O)N[C@@H](c2ccc(C(F)(F)F)cc2)c2ncccc2C(F)(F)F)c1 [Example 168, (S)-3-cyano-N-((4-(trifluoromethyl)phenyl)(3-(trifluoromethyl)pyridin-2-yl)methyl)be] |
| 7.76 | COc1ccc(C(=O)N[C@@H](c2ccc(C(F)(F)F)cc2)c2ncccc2C(F)(F)F)cc1 [Example 171, (S)-4-methoxy-N-((4-(trifluoromethyl)phenyl)(3-(trifluoromethyl)pyridin-2-yl)methyl)benzamide] |
| 7.64 | CC(=O)Oc1ccc(C(=O)N[C@@H](c2ccc(C(F)(F)F)cc2)c2ncccc2C(F)(F)F)cc1 [Example 174, (S)-4-(((4-(trifluoromethyl)phenyl)(3-trifluoromethyl)methyl)carbamoyl)phenyl acetate] |
| 7.52 | O=C(N[C@@H](c1ccc(C(F)(F)F)cc1)c1ncccc1C(F)(F)F)c1ccc2cn[nH]c2c1 [Example 175, (S)-N-((4-(trifluoromethyl)phenyl)(3-(trifluoromethyl)pyridin-2-yl)methyl)-1H-indazole-6-carboxamide] |
| 7.66 | COc1ccccc1C(=O)N[C@@H](c1ccc(C(F)(F)F)cc1)c1ncccc1C(F)(F)F [Example 176, (S)-2-methoxy-N-((4-(trifluoromethyl)phenyl)(3-(trifluoromethyl)pyridin-2-yl)methyl)benzamide] |
| 7.58 | O=C(N[C@@H](c1ccc(C(F)(F)F)cc1)c1ncccc1C(F)(F)F)c1ccncc1 [Example 178, (S)-N-((4-(trifluoromethyl)phenyl)(3-(trifluoromethyl)pyridin-2-yl)methyl)isonicotinamide] |
| 7.40 | O=C(O)c1cccc(C(=O)N[C@@H](c2ccc(C(F)(F)F)cc2)c2ncccc2C(F)(F)F)c1 [Example 179, (S)-3-(((4-(trifluoromethyl)phenyl)(3-(trifluoromethyl)pyridin-2-yl)methyl)carbamoyl)benzoic acid] |
| 7.38 | Cc1cncc(C(=O)N[C@@H](c2ccc(C(F)(F)F)cc2)c2ncccc2C(F)(F)F)c1 [Example 182, (S)-5-methyl-N-((4-(trifluoromethyl)phenyl)(3-(trifluoromethyl)pyridin-2-yl)methyl)nicotinamide 2,2,2-trifluoroacetate] |
| 7.40 | O=C(N[C@@H](c1ccc(C(F)(F)F)cc1)c1ncccc1C(F)(F)F)c1ccc(F)cc1 [Example 183, (S)-4-fluoro-N-((4-(trifluoromethyl)phenyl)(3-(trifluoromethyl)pyridin-2-yl)methyl)benzamide] |
| 7.28 | N#Cc1cccc(C(=O)N[C@@H](c2ccc(C(F)(F)F)cc2)c2ncccc2F)c1 [Example 184, (S)-3-cyano-N-((3-fluoropyridin-2-yl)(4-(trifluoromethyl)phenyl)methyl)benzamide] |
| 7.54 | O=C(N[C@@H](c1ccc(C(F)(F)F)cc1)c1ncccc1C(F)(F)F)c1ccc(Cl)cc1 [Example 185, (S)-4-chloro-N-((4-(trifluoromethyl)phenyl)(3-(trifluoromethyl)pyridin-2-yl)methyl)benzamide] |
| 7.31 | CN(C)c1cccc(C(=O)N[C@@H](c2ccc(C(F)(F)F)cc2)c2ncccc2C(F)(F)F)c1 [Example 186, (S)-3-(dimethylamino)-N-((4-(trifluoromethyl)phenyl)(3-(trifluoromethyl)pyridin-2-yl)methyl)benzamide] |
| 7.34 | O=C(N[C@@H](c1ccc(C(F)(F)F)cc1)c1ncccc1F)c1cccc(F)c1 [Example 187, (S)-3-fluoro-N-((3-fluoropyridin-2-yl)(4-(trifluoromethyl)phenyl)methyl)benzamide] |
| 7.09 | COC(=O)c1cccc(C(=O)N[C@@H](c2ccc(C(F)(F)F)cc2)c2ncccc2C(F)(F)F)c1 [Example 189, (S)-methyl 3-(((4-(trifluoromethyl)phenyl)(3-(trifluoromethyl)pyridin-2-yl)methyl)carbamoyl)benzoate] |
| 7.10 | COc1cccc(C(=O)N[C@@H](c2ccc(C(F)(F)F)cc2)c2ncccc2C(F)(F)F)c1 [Example 191, (S)-3-methoxy-N-((4-(trifluoromethyl)phenyl)(3-(trifluoromethyl)pyridin-2-yl)methyl)benzamide] |
| 7.10 | Cn1ccc(C(=O)N[C@@H](c2ccc(C(F)(F)F)cc2)c2ncccc2C(F)(F)F)n1 [Example 192, (S)-1-methyl-N-((4-(trifluoromethyl)phenyl)(3-(trifluoromethyl)pyridin-2-yl)methyl)-1H-pyrazole-3-carboxamide] |
| 7.17 | CN(C)c1ccc(C(=O)N[C@@H](c2ccc(C(F)(F)F)cc2)c2ncccc2C(F)(F)F)cc1 [Example 196, (S)-4-(dimethylamino)-N-((4-(trifluoromethyl)phenyl)(3-(trifluoromethyl)pyridin-2-yl)methyl)benzamide] |
| 6.94 | N#Cc1ccccc1C(=O)N[C@@H](c1ccc(C(F)(F)F)cc1)c1ncccc1C(F)(F)F [Example 197, (S)-2-cyano-N-((4-(trifluoromethyl)phenyl)(3-(trifluoromethyl)pyridin-2-yl)methyl)benzamide] |
| 7.11 | O=C(N[C@@H](c1ccc(C(F)(F)F)cc1)c1ncccc1C(F)(F)F)c1ccoc1 [Example 199, (S)-N-((4-(trifluoromethyl)phenyl)(3-(trifluoromethyl)pyridin-2-yl)methyl)furan-3-carboxamide] |

The next lines start with the molecule.

| SMILES | pIC50 |
| --- | --- |
| CC(=O)NC(C)C(=O)N[C@@H](c1ccc(C(F)(F)F)cc1)c1ncccc1C(F)(F)F (stereo partly drawn) [Example 162, 2-acetamido-N-((S)-(4-(trifluoromethyl)phenyl)(3-(trifluoromethriyl)pyridin-2-yl)methyl)propanamide] | 5.36 |
| O=C1CC(C(=O)N[C@@H](c2ccc(C(F)(F)F)cc2)c2ncccc2C(F)(F)F)CN1 (stereo partly drawn) [Example 163, 5-oxo-N-((S)-(4-(trifluoromethyl)phenyl)(3-(trifluoromethyl)pyridin-2-yl)methyl)pyrrolidine-3-carboxamide] | 5.50 |
| O=C(Cc1ccccc1OC(F)(F)F)N[C@@H](c1ccc(C(F)(F)F)cc1)c1ncccc1C(F)(F)F [Example 164] | 6.53 |
| O=C(N[C@@H](c1ccc(C(F)(F)F)cc1)c1ncccc1F)c1ccc2cn[nH]c2c1 [Example 166, (S)-N-((3-fluoropyridin-2-yl)(4-(trifluoromethyl)phenyl)methyl)-1H-indazole-6-carboxamide] | 8.12 |
| COc1ccccc1C(=O)N[C@@H](c1ccc(C(F)(F)F)cc1)c1ncccc1F [Example 169, (S)-N-((3-fluoropyridin-2-yl)(4-(trifluoromethyl)phenyl)methyl)-2-methoxybenzamide] | 7.98 |
| O=C(N[C@@H](c1ccc(C(F)(F)F)cc1)c1ncccc1F)c1ccc2nccnc2c1 [Example 170, (S)-N-((3-fluoropyridin-2-yl)(4-(trifluoromethyl)phenyl)methyl)quinoxaline-6-carboxamide] | 7.63 |
| COc1ccc(C(=O)N[C@@H](c2ccc(C(F)(F)F)cc2)c2ncccc2F)cc1 [Example 172, (S)-N-((3-fluoropyridin-2-yl)(4-(trifluoromethyl)phenyl)methyl)-4-methoxybenzamide] | 7.74 |
| O=C(N[C@@H](c1ccc(C(F)(F)F)cc1)c1ncccc1F)c1ccc(O)cn1 [Example 173, (S)-N-((3-fluoropyridin-2-yl)(4-(trifluoromethyl)phenyl)methyl)-5-hydroxypicolinamide] | 7.82 |
| O=C(N[C@@H](c1ccc(C(F)(F)F)cc1)c1ncccc1F)c1ccc2[nH]c(=O)[nH]c2c1 [Example 177, (S)-N-((3-fluoropyridin-2-yl)(4-(trifluoromethyl)phenyl)methyl)-2-oxo-2,3-dihydro-1H-benzo[d]imidazole-5-carboxamide] | 7.68 |
| O=C(N[C@@H](c1ccc(C(F)(F)F)cc1)c1ncccc1F)c1ccccc1 [Example 180, (S)-N-((3-fluoropyridin-2-yl)(4-(trifluoromethyl)phenyl)methyl)benzamide] | 7.53 |
| Cc1ncoc1C(=O)N[C@@H](c1ccc(C(F)(F)F)cc1)c1ncccc1C(F)(F)F [Example 190, (S)-4-methyl-N-((4-(trifluoromethyl)phenyl)(3-(trifluoromethyl)pyridin-2-yl)methyl)oxazole-5-carboxamide] | 7.48 |
| O=C(NC(c1ccc(C(F)(F)F)cc1)c1ncccc1F)c1ccccc1 (stereo not shown) [Example 193, N-((3-fluoropyridin-2-yl)(4-(trifluoromethyl)phenyl)methyl)benzamide] | 7.46 |
| O=C(N[C@@H](c1ccc(C(F)(F)F)cc1)c1ncccc1F)c1ccccn1 [Example 194, (S)-N-((3-fluoropyridin-2-yl)(4-(trifluoromethyl)phenyl)methyl)picolinamide] | 7.12 |
| O=C(N[C@@H](c1ccc(C(F)(F)F)cc1)c1ncccc1Br)c1ccc2cccnc2c1 [Example 195, (S)—N-((3-bromopyridin-2-yl)(4-(trifluoromethyl)-phenyl)methyl)quinoline-7-carboxamide] | 7.30 |
| O=C(N[C@@H](c1ccc(C(F)(F)F)cc1)c1ncccc1F)c1cnc(Cl)c(Br)c1 [Example 198, (S)-5-bromo-6-chloro-N-((3-fluoropyridin-2-yl)(4-(trifluoromethyl)phenyl)methyl)nicotinamide] | 7.25 |
| O=C(N[C@@H](c1ccc(C(F)(F)F)cc1)c1ccccn1)c1ccc(=O)[nH]c1 [Example 201, (S)-6-oxo-N-(pyridin-2-yl(4-(trifluoromethyl)phenyl)methyl)-1,6-dihydropyridine-3-carboxamide 2,2,2-trifluoroacetate] | 7.53 |
| O=C(NC(c1ccc(C(F)(F)F)cc1)c1ncccc1F)c1ccc2nccnc2c1 (stereo not shown) [Example 202, N-((3-fluoropyridin-2-yl)(4-(trifluoromethyl)phenyl)methyl)quinoxaline-6-carboxamide] | 7.45 |
